Measurements from patent US20080132539A1, “Hydroxamic Acid Derivative And Age Generation Inhibitor Containing The Derivative” (priority 2003, published 2008).

Legend:
Assay type in all cases: biochemical
[1] = test system: Maillard reaction (lysozyme / fructose, dimer formation); assay: Maillard reaction-inhibiting effects (lysozyme dimer formation with fructose, SDS-PAGE densitometry); details: 10 mg/mL lysozyme, 200 mM fructose, pH 7.4, 37° C., 4 days, dimer formation inhibition rate
Method: This Example examined Maillard reaction-inhibiting effects using, as test compounds, the compounds produced in the above-described Examples and the commercially available substances arginine hydroxamate (Compound No. 111), tyrosine hydroxamate (Compound No. 112), and tryptophan hydroxamate (Compound No. 113). More specifically, 10 mg/mL lysozyme, 200 mM fructose, and each of the above-described test compounds dissolved in a 0.4 mM sodium phosphate buffer (pH 7.4) so as to provide a concentrations of 0.1, 0.3, 1, or 3 mM were incubated at 37° C. for 4 days. After the incubation, the samples were subjected to SDS-PAGE, stained with Coomassie Brilliant Blue R-250, and quantitated for the formed dimmers using a densitometer. The Maillard reaction-inhibiting activity was defined as the dimmer formation inhibition rate of a test compound calculated on the basis that the amount of dimmer is 100% in the absence of the test compound, using, as blank, the amount of dimer in the absence of fructose and the test compound.

[2] = Methyl glyoxal-trapping activity test (DMB derivatisation, HPLC); details: 0.02 mM methyl glyoxal, 0.2 mM test compound, PBS, 37° C., 30 minutes
Method: In 0.2 mL of PBS were incubated 0.02 mM of methyl glyoxal and 0.2 mM of test compound at 37° C. for 30 minutes. Subsequently, a volume of 5 mM DMB (1,2-diamino-4,5-methylenedioxy benzene) solution equivalent to 10 μL of the incubation sample was added, followed by further incubation at 4° C. for 7 hours to react the remaining methyl glyoxal with DMB. After the end of reaction, a 0.4 M phosphate buffer solution (pH 7.2) was added for neutralization, followed by quantitating the modified product of methyl glyoxal-DMB using HPLC.
(§1) HPLC having a YMC-Pack Pro C18 column (φ4.6 mm×150 mm) and employing 5 mM sodium phosphate buffer (pH 7.4)-25% acetonitrile as a mobile phase was used at a flow rate of 0.7 mL/min to determine fluorescence strength at Ex352 nm and Em385 nm.
The proportion of methyl glyoxal trapped by the test compound was calculated as % trapping activity, based on the quantitative value of the total modified product of methyl glyoxal-DMB in the absence of the test compound.

[3] = Glyoxal-trapping activity test (DMB derivatisation, HPLC); details: 0.02 mM glyoxal, 0.2 mM test compound, PBS, 37° C., 30 minutes
Method: In 0.2 mL of PBS were incubated 0.02 mM of glyoxal and 0.2 mM of test compound at 37° C. for 30 minutes. Subsequently, a volume of 5 mM DMB (1,2-diamino-4,5-methylenedioxy benzene) solution equivalent to 10 μL of the incubation sample was added, followed by further incubation at 4° C. for 7 hours to react the remaining methyl glyoxal with DMB. After the end of reaction, a 0.4 M phosphate buffer solution (pH 7.2) was added for neutralization, followed by quantitating the modified product of glyoxal-DMB using HPLC.
as §1
The proportion of glyoxal trapped by the test compound was calculated as % trapping activity, based on the quantitative value of the total modified product of glyoxal-DMB in the absence of the test compound.

[4] = test compound concentration 0.1 mM
[5] = test compound concentration 0.3 mM
[6] = test compound concentration 1 mM
[7] = test compound concentration 3 mM

Row | Compound | Maillard reaction-inhibiting activity (%) [1, 4] [%] | Maillard reaction-inhibiting activity (%) [1, 5] [%] | Maillard reaction-inhibiting activity (%) [1, 6] [%] | Maillard reaction-inhibiting activity (%) [1, 7] [%] | Methyl-glyoxal-trapping activity (% trapping) [2] [% trapping] | Glyoxal-trapping activity (% trapping) [3] [% trapping]
1 | CCCn1c(CC[C@H](N)C(=O)NO)nc2cc(Cl)c(Cl)cc21 [Compound No. 95, (S)-2-amino-4-(5,6-dichloro-1-propyl-1H-benzimidazol-2-yl)-N-hydroxybutyramide] | 102 | 106 | 107 | 108 | 84.2 ± 0.6 | 65.7 ± 2.2
2 | N#Cc1ccc(Cn2cc(CC(N)C(=O)NO)c3ccccc32)cc1 (racemic) [Compound No. 107, (RS)-2-amino-3-[1-(4-cyanobenzyl)-1H-indol-3-yl]-N-hydroxypropionamide] | 101 | 100 | 101 | 101 | 87.3 ± 0.5 | 69.8 ± 1.2
3 | N[C@@H](Cc1ccc(O)cc1)C(=O)NO [Compound No. 112, tyrosine hydroxamate] | 24 | 61 | 99 | 101 | 74.4 ± 2.7 | 67.8 ± 1.2
4 | N=C(N)NN [Aminoguanidine, reference compound] | −3 | −5 | 7 | 26 | 52.8 ± 1.5 | 32.9 ± 3.8
5 | N[C@@H](Cc1cn(Cc2c(F)c(F)c(F)c(F)c2F)c2ccccc12)C(=O)NO [Compound No. 104, (S)-2-amino-3-(1-pentafluorophenylmethyl-1H-indol-3-yl)-N-hydroxypropionamide] | 95 | 97 | 94 | 100 | 81.9 ± 2.1 | 66.5 ± 2.4
6 | NC(Cc1c[nH]c2ccccc12)C(=O)NO (stereo not drawn) [Compound No. 113, tryptophan hydroxamate] | 42 | 76 | 99 | 102 | 96.2 ± 0.7 | 75.9 ± 0.9
7 | NC(N)=NCCC[C@H](N)C(=O)NO [Compound No. 111, arginine hydroxamate] | 10 | 17 | 75 | 98 | 77.6 ± 0.5 | 75.2 ± 1.3
8 | CCCCCn1cc(CC(N)C(=O)NO)c2ccccc21 (racemic) [Compound No. 105, (RS)-2-amino-3-(1-pentyl-1H-indol-3-yl)-N-hydroxypropionamide] | 95 | 97 | 98 | 98 | 93.3 ± 0.8 | 69.7 ± 1.1
